According to patent US20120270183A1, “METHOD OF TREATING AND/OR PREVENTING CONDITIONS CAUSED BY MICROORGANISMS USING AN ORAL LIGHT DEVICE” (COLGATE-PALMOLIVE COMPANY, priority 2009, published 2012):
Entries after “also recorded” stand apart in the source; their conditions may differ.

System: biofilm of A. naeslundi
Assay: Biofilm reduction by photosensitizer plus light
Format: cell-based
Settings: 0.1% photosensitizer in the presence of light
Procedure: Bacterial biofilms (24 h old) were treated with the photosensitizers or photo-triggered actives described in the tables below at a concentration less than their minimum inhibitory concentration (MIC). The actives were either pre-incubated before light exposure for 2 s to 15 min, typically less than 2 min, or administered at the same time the biofilm was exposed to the light. The bacteria were irradiated at a set wavelength for 2 s to 15 min (typically less than 2 min) at an energy dose between 1-450 J/cm^2. Optical power densities typically ranged from 1-500 mW/cm^2. Light was either pulsed or provided in one continuous light exposure. Pulsed light treatments were preferred for high optical energy treatments.
On a biofilm of A. naeslundi, the impact of four “photosensitizers” (0.1% concentration) in the presence of light was evaluated. MIC typically ranged from 0.0001% (w/v) to 1% (w/v). The percent biofilm reduction is tabulated below.

Compound	Biofilm reduction compared to light alone (in words)
COc1cc(S(=O)(=O)[O-])c(C)cc1N=Nc1c(O)ccc2cc(S(=O)(=O)[O-])ccc12.[Na+].[Na+] [Allura Red, Allura Red AC]	increased biofilm reduction compared to light alone
CCN(Cc1cccc(S(=O)(=O)[O-])c1)c1ccc(C(=C2C=CC(=[N+](CC)Cc3cccc(S(=O)(=O)[O-])c3)C=C2)c2ccc(O)cc2S(=O)(=O)[O-])cc1.[Na+].[Na+] [Fast Green, Fast Green FCF]	increased biofilm reduction compared to light alone
CN(C)c1ccc(C(=C2C=CC(=[N+](C)C)C=C2)c2c(O)c(S(=O)(=O)[O-])cc3cc(S(=O)(=O)[O-])ccc23)cc1.[Na+] [Lissamine Green B]	increased biofilm reduction compared to light alone
Cc1cc2nc3c(=O)[nH]c(=O)nc-3n(C[C@H](O)[C@H](O)[C@H](O)CO)c2cc1C [Riboflavin]	increased biofilm reduction compared to light alone
O=C([O-])C1=NN(c2ccc(S(=O)(=O)[O-])cc2)C(=O)C1N=Nc1ccc(S(=O)(=O)[O-])cc1.[Na+].[Na+].[Na+] (stereo not drawn) [Tartrazine]	increased biofilm reduction compared to light alone

System: TNFα of HEPM cells stimulated by IL-1β
Assay: Cytokine (TNFα) concentration in IL-1β stimulated cell culture after light plus dye
Format: cell-based, human
Settings: Fast Green at 1000 ppm combined with light at 625 nm for 2 minutes, 9 mW/cm^2, 1.1 J/cm^2
Procedure: Cells used in this example include human embryonic palatal mesenchymal (HEPM) cells and oral keratinocytes OBA9 cells. The embodiments also can be used with other cells such as human gingival fibroblasts (HGF). Cells were seeded in 24-well plates and cultured until reaching a confluence above 80%. The confluent-stage cells were treated with stimulants such as IL-1β followed by light irradiation alone, or light irradiation combined with GRAS photosensitizing dye. The cells were either pre-incubated in photosensitizing dye before light exposure, or administered at the same time of light exposure. The cells were incubated in photosensitizing dyes for varied amounts of time, the concentration of photosensitizing dyes were varied, and the cell were irradiated with light for varied amounts of time per exposure, as well as irradiation either one time or multiple times, as described below. After irradiation, the cells were incubated at 37° C. The cell culture media was collected after a certain amount of time for cytokine analysis.
The results tabulated below reveal that visible light (various wavelength, 380-700 nm) alone and photosensitizing dye irradiated with visible light (various wavelength, 380-700 nm) have anti-inflammation effect. […]

Compound	Effect on TNFα concentration (in words)
CCN(Cc1cccc(S(=O)(=O)[O-])c1)c1ccc(C(=C2C=CC(=[N+](CC)Cc3cccc(S(=O)(=O)[O-])c3)C=C2)c2ccc(O)cc2S(=O)(=O)[O-])cc1.[Na+].[Na+] [Fast Green, Fast Green FCF]	can decrease pro-inflammation cytokine TNFα concentration; also recorded: can reduce concentration of TNFα
